According to patent US20090004302A1, “Methods and Therapeutic Compositions Comprising Plant Extracts for the Treatment of Cancer” (priority 2004, published 2009):
Where “and” joins values, the source holds several entries; their conditions need not be identical. Equal entries are not always repeated.

How the values were obtained:
[1] = system: B16F10 melanoma subcutaneous tumour; assay: B16F10 melanoma model of tumour growth; assay type: in vivo, C57BL/6 mice; details: Day 14
Procedure: The B16F10 melanoma model in C57BL/6 mice was used for this study. B16F10 cells (1×10^6 cells, screened for mycoplasma) were injected subcuteanously on Day 0 on the right flank of each mouse. The mice were divided into 9 groups and received the treatments outlined below. Plant extracts A and B (see Example VI) were used in this study.
Oral administration of plant extracts was initiated 7 days prior to injection of the B16F10 cells (i.e. on day-7) and continued for […] with or without sub-optimal doses of doxorubicin (see below).
Group 1: The vehicle used for administration of the plant extracts was used as a negative control for the experiment. Group 2: Doxorubicin (2.5 mg/kg), a standard positive control in the B16F10 melanoma model at optimal dosage, was injected intraperitoneally on days 5, 9 and 13. Group 3: Doxorubicin (1 mg/kg), a sub-optimal dose in this model, was injected intraperitoneally on days 5, 9 and 13. Group 4: Therapeutic plant extract A (PA1) was administered by gavage (200 mg/kg) from days-7 to 14. Group 5: Therapeutic plant extract B (PB1) was administered by gavage (200 mg/kg) from days-7 to 14. Group 6: Therapeutic combination 5 (TC5) was administered to this group. TC5 comprised plant extract A and doxorubicin (1 mg/kg). Plant extract A was administered by gavage (200 mg/kg) from days-7 to 14 and doxorubicin was injected intraperitoneally on days 5, 9 and 13. Group 7: Therapeutic combination 6 (TC6) was administered to this group. TC6 comprised plant extract B and doxorubicin (1 mg/kg). Plant extract B was administered by gavage (200 mg/kg) from days-7 to 14 and doxorubicin was injected intraperitoneally on days 5, 9 and 13. Group 8: Therapeutic combination 7 (TC7) was administered to this group. TC7 comprised plant extract A, plant extract B and doxorubicin (1 mg/kg). […]
The subcutaneous tumour was measured on each animal with an electronic calliper starting on day 5 and repeated on days 8, 11 and 14 and the volume of tumour was calculated according to formula: […]. […]

[2] = system: LLC1 cells clone M27 lung tumour metastases; assay: Lewis lung carcinoma (LLC) model of tumour metastasis; assay type: in vivo, C57BL/6 mice; details: for Mean (SD) tumours/animal / % reduction compared to control (lung tumour metastases) / Total tumour burden (per group): Day 14
Procedure: The Lewis lung carcinoma model in C57BL/6 mice was used for this study. Lewis lung carcinoma is an aggressive, highly metastatic cell line. LLC1 cells clone M27 (3×10^5 cells, screened for mycoplasma) were injected on Day 0 into the tail vein of each mouse. The mice were divided into 7 groups and received the treatments outlined below. Oral administration of plant extracts was initiated 9 days prior to injection of LLC cells (i.e. on day-9) and continued for […] along with sub-optimal doses of cisplatin (see below). Group 1: […] Group 2: […] Group 3: […] Group 4: Therapeutic combination 1 (TC1) was administered to this group. […] Group 5: Therapeutic combination 2 (TC2) was administered to this group. […] Group 6: Therapeutic combination 3 (TC3) was administered to this group. […] Group 7: Therapeutic combination 4 (TC4) was administered to this group. […] At the end of the experiment (Day 14), the animals were humanely sacrificed, the lungs resected and fixed by direct immersion for approximately 24 hrs in Bouin's fixing media. Metastatic colonies on each lung surface of each mouse were counted by direct observation under a dissecting microscope in a blinded manner by three different investigators.

| SMILES | Volume (mm^3) of tumour ([1]; doxorubicin 1 mg/kg i.p. days 5, 9, 13) | % growth of tumour ([1]; doxorubicin 1 mg/kg i.p.) | Diameter (mm) of tumour ([1]; doxorubicin 1 mg/kg i.p.) | Mean (SD) tumours/animal ([2]; cisplatin 2 mg/kg i.p. days 1, 4, 7, 10, 13) | % reduction compared to control (lung tumour metastases) ([2]; cisplatin 2 mg/kg i.p.) | Total tumour burden (per group) ([2]; cisplatin 2 mg/kg i.p.) | body weight of animals ([2]; cisplatin 5 mg/kg dose) | Mean (SD) tumours/animal ([2]; cisplatin 5 mg/kg i.p. days 1, 4, 7, 10, 13) | % reduction compared to control (lung tumour metastases) ([2]; cisplatin 5 mg/kg i.p.) | Total tumour burden (per group) ([2]; cisplatin 5 mg/kg i.p.) |
| --- | --- | --- | --- | --- | --- | --- | --- | --- | --- | --- |
| COc1cccc2c1C(=O)c1c(O)c3c(c(O)c1C2=O)C[C@@](O)(C(=O)CO)C[C@@H]3O[C@H]1C[C@H](N)[C@H](O)[C@H](C)O1 [Doxorubicin] | 2682 ± 220 mm^3 | 247 ± 30% | 21.4 ± 1.1 mm | – | – | – | – | – | – | – |
| N.N.[Cl][Pt][Cl] [Cisplatin] | – | – | – | 24.70 | 27% and 26.7% | 346 | sharp decrease | 1.46 | 96% and 95.6% | 21 |
